Reference: US8450374B2, “Pan-antagonists for the androgen receptor and androgen receptor mutants associated with anti-androgen withdrawal” (priority 2009, dated 2013)
Numbering of substitutions follows the chain as printed.

What was measured:
[1] = 25 mg/kg/day IP; PLM6 death at 5 days of treatment
Source text: (§1) Prostates were removed from 3 day and 5 day treatment groups, sectioned and stained by H&E and TUNEL.

prostate tissues = experiment: Prostate apoptosis by TUNEL after short-term IP treatment (PLM6, bicalutamide); format: in vivo, Male C57BI/6 mice; conditions: 25 mg/kg/day IP, mean ± SE
Method: FIG. 6. […] Single 20× magnification fields from each of four lobes of mouse prostate glands were counted in each mouse. […] Data are expressed as means±SE. Statistics were determined using two-tailed, paired t-tests assuming data from each lobe was independent.
as §1
PLM6-induced glandular apoptosis was 19.9±2.8 cells per 20× field on day 3 (P=0.0064) that reached 24.63±3 cells per 20× field on day 5 (P=2.59×10^−4) (FIG. 7). Prostates from treated and control mice were isolated, fixed sectioned and stained TUNEL (BrdU). Sections were then evaluated by visible light microscopy and counting.

AR W741C = target: T1, AR W741C (Homo sapiens, UniProt P10275, W742C); experiment: Competitive binding assay, [3H]DHT, transfected COS-7 cells, AR W741C; design: expressed in transfected cells; host or cells: COS-7; conditions: 75 nM [3H]-DHT, read-out: Binding affinity (Ki), AR W741C
T1 sequence (P10275 1-920 W742C): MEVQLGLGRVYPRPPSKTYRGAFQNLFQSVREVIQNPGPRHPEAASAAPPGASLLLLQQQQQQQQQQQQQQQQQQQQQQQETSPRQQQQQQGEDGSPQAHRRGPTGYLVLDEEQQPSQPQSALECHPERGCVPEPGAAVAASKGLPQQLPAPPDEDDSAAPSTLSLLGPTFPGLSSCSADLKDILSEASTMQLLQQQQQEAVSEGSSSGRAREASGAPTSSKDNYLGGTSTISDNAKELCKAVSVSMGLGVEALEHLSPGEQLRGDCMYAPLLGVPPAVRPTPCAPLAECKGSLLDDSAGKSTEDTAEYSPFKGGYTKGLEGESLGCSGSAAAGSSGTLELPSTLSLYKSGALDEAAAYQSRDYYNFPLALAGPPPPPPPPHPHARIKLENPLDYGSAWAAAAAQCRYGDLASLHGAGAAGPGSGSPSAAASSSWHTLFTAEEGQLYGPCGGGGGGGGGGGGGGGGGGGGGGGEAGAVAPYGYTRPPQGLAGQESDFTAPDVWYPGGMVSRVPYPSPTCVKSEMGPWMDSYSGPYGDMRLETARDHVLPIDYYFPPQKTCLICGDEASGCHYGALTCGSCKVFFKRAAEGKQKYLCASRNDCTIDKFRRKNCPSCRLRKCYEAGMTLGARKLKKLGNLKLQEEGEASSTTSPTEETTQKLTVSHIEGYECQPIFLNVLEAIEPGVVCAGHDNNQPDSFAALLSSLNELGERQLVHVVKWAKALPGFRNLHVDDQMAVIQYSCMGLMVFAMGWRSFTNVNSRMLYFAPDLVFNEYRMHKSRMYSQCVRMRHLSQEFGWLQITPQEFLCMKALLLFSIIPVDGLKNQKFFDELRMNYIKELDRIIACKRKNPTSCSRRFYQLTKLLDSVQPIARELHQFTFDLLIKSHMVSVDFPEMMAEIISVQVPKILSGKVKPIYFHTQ
Method: (§2) Twenty-four hours prior to transfection, COS-7 cells were seeded at a density of 70,000 cells per well in 24-well cell culture plates and grown in phenol red free Dulbecco's Modified Eagle Medium (DMEM) supplement with 10% cosmic calf serum (CCS). The cells were transfected with a prokaryotic expression vector encoding the wild-type androgen receptor or mutant androgen receptor using Lipofectamine (Invitrogen) following manufacturer's protocol. […] Cells were washed with PBS and harvested in 2% SDS, 10% glycerol, and 10 mM Tris, pH 6.8, and radioactivity determined by scintillation counting.

AR wt [2] = target: T2, AR wt (Homo sapiens, UniProt P10275); experiment: Transcription assay (ARE-luciferase reporter) in CV-1 cells, wild-type AR; format: cell-based; design: expressed in transfected cells; host or cells: CV-1
T2 sequence (P10275 1-920): T1 sequence (P10275 1-920 W742C) with C742W
Method: (§3) Twenty-four hours prior to transfection, CV-1 cells were seeded at a density of 45,000 cells per well in 24-well cell culture plates and grown in phenol red free Dulbecco's Modified Eagle Medium (DMEM) supplemented with 10% cosmic calf serum (COS). ARE-luciferase reporter and Renilla-Luc as the internal standard and a prokaryotic expression vector encoding the wild-type androgen receptor or mutant androgen receptor were transfected with Lipofectamine (Invitrogen) following manufacturer's protocol. Five hours after transfection, media was added containing the appropriate concentrations of ligands. The cells were allowed to incubate for 38 hours before harvesting by passive lysis buffer. Cell extracts were immediately assayed using the Dual Luciferase Assay (Promega) with a Perkin-Elmer Microbeta Luminometer. […] Dose-response data was analyzed by nonlinear regression analysis using GraphPad Prism.

AR T877A [3] = target: T3, AR T877A (Homo sapiens, UniProt P10275, T878A); experiment: Competitive binding assay, [3H]DHT, transfected COS-7 cells, AR T877A; design: expressed in transfected cells; host or cells: COS-7; conditions: 14 nM [3H]-DHT, read-out: Binding affinity (Ki), AR T877A
T3 sequence (P10275 1-920 T878A): T1 sequence (P10275 1-920 W742C) with C742W, T878A
Method: as §2

AR T877A [4] = target: T3, AR T877A; experiment: Transcription assay (ARE-luciferase reporter) in CV-1 cells, AR T877A; format: cell-based; design: expressed in transfected cells; host or cells: CV-1
Method: as §3

AR wt [5] = target: T2, AR wt; experiment: Competitive binding assay, [3H]DHT, transfected COS-7 cells, wild-type AR; design: expressed in transfected cells; host or cells: COS-7; conditions: 8 nM [3H]-DHT, read-out: Binding affinity (Ki), AR wt
Method: as §2

| Structure (SMILES) | Deaths [1] | Glandular apoptosis, apoptotic cells (prostate tissues; day 3, TUNEL) [cells per 20× field] | Glandular apoptosis, apoptotic cells (prostate tissues; day 5, TUNEL) [cells per 20× field] | Ki (AR W741C) [µM] | IC50 (AR wt [2]) [µM] | Antagonist efficacy (RLU value at IC50), AR wt (AR wt [2]; in competition with 3 nM DHT, normalized to 10 nM DHT in hAR(wt)) | Ki (AR T877A [3]) [µM] | IC50 (AR T877A [4]) [µM] | Antagonist efficacy (RLU value at IC50), AR T877A (AR T877A [4]; in competition with 10 nM DHT) | Ki (AR wt [5]) [µM] |
| --- | --- | --- | --- | --- | --- | --- | --- | --- | --- | --- |
| CC(O)(CS(=O)(=O)c1ccc(F)cc1)C(=O)Nc1ccc(C#N)c(C(F)(F)F)c1 (stereo not shown) [Bicalutamide, bicalutamide] | two | 21.04±4.7 | 50.83±8.2 | – | – | – | – | – | – | – |
| CN(C)CCCOc1ccccc1Cc1ccccc1S(=O)(=O)CC(C)(O)C(=O)Nc1ccc(C#N)c(C(F)(F)F)c1 (stereo not shown) [PAN12] | – | – | – | 16 | 2.4 | (59%) | 2.6 | 4.1 ± 0.7 | (53% ± 5.6%) | 5.8 |
